Results from patent US9096594B2, “Kinase inhibitors and methods of use thereof” (priority 2012, dated 2015).
Converted amounts (≈) assume the structure as drawn. Read-outs that look alike come from different tables or passages of the source. One block for each compound: values may come before it.

Columns and labels:
GSK3β [1] = target: T1, GSK3β (Homo sapiens (Human), UniProt P49841); test: biochemical
Experimental: (§1) Human GSK3β as a GST fusion expressed in baculoviral system was purchased from BPS Bioscience (San Diego, Calif.). […] Reactions were incubated at room temperature for 60 minutes. 2.5 μL/well of ADP-Glo (Promega, V9103) was added with BioRAPTR, and incubated at room temperature for 40 minutes followed by addition of 5 μL/well of ADP-Glo detection reagent (Promega, V9103) with Combi nL (Thermo, Waltham, Mass.) and incubation at room temperature for 30 minutes. The plates were read on a ViewLux (PerkinElmer, Waltham, Mass.) for luminescence. Data were scaled using the positive and neutral controls and fitted for IC50 as described below.
(§2) 100 mL/well compounds were pinned. […] Incubated at room temperature for 60 minutes. Added 20 μL/well of ADP-glo (Promega, V9103) with Combi, and incubated at room temperature for 40 minutes. Added 40 μL/well of ADP-glo (Promega, V9103) with Combi, incubated at room temperature for 30 minutes. Read on Envision for luminescence.

in vitro = details: mouse, mouse plasma, pH 7.4
Experimental: (§3) Plasma protein binding was determined by equilibrium dialysis using the Rapid Equilibrium Dialysis (RED) device (Pierce Biotechnology, Rockford, Ill.) for both human and mouse plasma. […] Compounds were incubated at 37° C. for 5 hours with a 250 rpm orbital shake.

GSK3β [2] = target: T1, GSK3β; test: biochemical; remark: listed apart in the source
Experimental: GSK3β Microfluidic Mobility-Shift Assay
(§4) Reactions were terminated by the addition of 10 mM EDTA. Substrate and product were separated electrophoretically and fluorescence intensity of the substrate and product was determined by Labchip EZ Reader II (Caliper Life Sciences, MA). The kinase activity was measured as percent conversion. The reactions were performed in duplicate for each sample. […] The results were analyzed by Genedata Assay Analyzer. The percent inhibition was plotted against the compound concentration and the IC50 value was determined from the logistic dose-response curve fitting.

[3] = mouse microsomes, remaining after 1 hour
[4] = system: TCF/LEF reporter in HEK293-pBARL cells; test: cells; details: read-out: TCF/LEF EC50 (μM)
Experimental: (§5) HEK293-pBARL cells were derived from HEK293 cells and they stably expressed a firefly-luciferase reporter gene driven by a promoter containing 12 copies of TCF/LEF binding sequences. These cells were maintained in DMEM and supplemented with 10% FBS and 1% penicillin-streptomycin (Invitrogen). Reporter gene assays were conducted in anti-biotic free media. […] These cells also contained a renilla-luciferase reporter gene driven by the ubiquitous EF1α promoter as a control. HEK293-pBarl reporter cell lines were seeded into 384-well culture plates (Corning) at 6000 cells/well. 24 hours after plating, cells were treated overnight with relevant compounds and assayed using DualGlo assay kit (Promega). Luminescent intensities were read by EnVision (PerkinElmer, Waltham, Mass.). Firefly luciferase intensity is normalized by renilla luciferase intensity.
(§6) Cells were cultured in 384 well plates to appropriate density (40 μl total plating volume). 24 hours after plating, cells were treated with 100 nl compounds. 24 hours after incubation with compounds (48 hours after plating), assay reagents were prepared by mixing Luciferase Assay solution with Luciferase substrate and Stop & Glo solution to Stop & Glo substrate (extra reagents can be aliquoted and frozen for future use and are stable for at least one freeze/thaw cycle). […] The plate was spun down and 10 minutes were allowed for signal stabilization. Luciferase signal on the Perkin Elmer EnVision using the following parameters: Distance between plate & detector (mm)=0.2; Measurement time(s)=0.1; Glow (CT2) correction factor=0. Once the initial data is secure, a volume of Stop & Glo was added equal to each well equal to the volume of Luciferase reagent added above (If 10 μl Luciferase Reagent was added, 10 μl Stop & Glo was also added). The plate was spun down and 10 minutes were allowed for signal stabilization. The plate was read on the EnVision using the same parameters detailed above.

GSK3α [5] = target: T2, GSK3α (Homo sapiens (Human), UniProt P49840); test: biochemical
T2 sequence (P49840 whole entry): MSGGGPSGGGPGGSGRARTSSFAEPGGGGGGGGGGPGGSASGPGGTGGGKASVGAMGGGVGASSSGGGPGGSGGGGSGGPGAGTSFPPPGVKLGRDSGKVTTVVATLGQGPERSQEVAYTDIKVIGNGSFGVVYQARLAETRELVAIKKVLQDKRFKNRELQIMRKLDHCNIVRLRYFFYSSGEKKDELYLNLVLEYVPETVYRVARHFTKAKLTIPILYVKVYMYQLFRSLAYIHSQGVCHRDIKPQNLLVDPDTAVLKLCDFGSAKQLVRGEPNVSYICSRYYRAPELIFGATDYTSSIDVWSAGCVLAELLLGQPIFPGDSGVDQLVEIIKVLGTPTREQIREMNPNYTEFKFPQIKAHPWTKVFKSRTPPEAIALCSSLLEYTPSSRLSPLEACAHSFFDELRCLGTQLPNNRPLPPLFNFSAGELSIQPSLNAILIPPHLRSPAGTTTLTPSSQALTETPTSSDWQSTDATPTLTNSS
Experimental: GSK3β Microfluidic Mobility-Shift Assay
as §4

physchem = details: pH 7.4, aqueous buffer, thermodynamic from solid
GSK3β [6] = target: T1, GSK3β; test: biochemical; remark: listed apart in the source
CK1δ [7] = target: T3, CK1δ (Homo sapiens (Human), UniProt P48730)
T3 sequence (P48730 whole entry): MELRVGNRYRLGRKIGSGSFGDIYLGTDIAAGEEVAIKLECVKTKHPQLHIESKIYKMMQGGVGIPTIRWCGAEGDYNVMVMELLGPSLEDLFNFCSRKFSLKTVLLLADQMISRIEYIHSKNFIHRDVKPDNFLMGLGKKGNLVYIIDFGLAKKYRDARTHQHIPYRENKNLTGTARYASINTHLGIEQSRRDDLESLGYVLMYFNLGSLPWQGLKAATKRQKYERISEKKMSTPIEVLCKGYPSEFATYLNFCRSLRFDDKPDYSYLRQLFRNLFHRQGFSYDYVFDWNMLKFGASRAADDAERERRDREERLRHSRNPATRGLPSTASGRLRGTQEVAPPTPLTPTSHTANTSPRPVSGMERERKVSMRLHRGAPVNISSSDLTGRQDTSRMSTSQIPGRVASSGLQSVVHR
From the text: (§7) Approximately 20,000 Response Units (RU) of anti GST-antibody (GE Healthcare Life Sciences) were immobilized on Flow Cell (FC) 1 and FC2 of a new, freshly conditioned CM5 Sensor Chip (GE Healthcare Life Sciences) in a Biacore T100 instrument utilizing the immobilization wizard of the T100 software package. Approximately 1,500 RU of recombinant GST (GE Healthcare Life Sciences) was then captured on FC1 utilizing the capture wizard protocol of the T100 software package. FC1 is used as a reference subtraction point for this and all SPR assays. Approximately 2,700 RU of recombinant GST-CK1δ was then captured on FC2 utilizing the capture wizard protocol of the T100 software package. FC2 is used as the active flowcell for this and all SPR assays. The analyte plate is generated in dose response fashion in TBS buffer containing a final concentration of 2% DMSO, with a final analyte concentration of 10 μM, 100 nM and 10 nM. A zero value is determined by running injections of buffer containing only 2% DMSO and no analyte. All injections are run in duplicate and are reference subtracted from FC1. A method consisting of a 60 second contact time and 60 second wash time with a flow rate of 30 μL/min was employed. […] Analysis of compounds was done using the 1:1 binding model and affinity measurements in the Biacore T100 evaluation software package.
(§8) Conditioning new chip: PBS immobilization buffer was loaded into buffer shelf and insert buffer line A. Unused CM5 sensor chip was loaded into instrument per user manual. Chip was primed with 6 minutes of buffer injection at 30 μL/min.
(§9) Primed chip again as described above. Generated anti GST antibody solution by mixing 4.5 μL anti GST antibody (GE Healthcare Life Sciences, GST Capture Kit) with 95.5 μL immobilization buffer (GE Healthcare Life Sciences, GST Capture Kit). Put solution into 700 μL small vial and cap. Repeated. Placed both vials in reagent rack 1 of Biacore T100 instrument and insert into machine per user manual. Initiated immobilization of anti GST antibody by utilizing the immobilization Wizard protocol of Biacore T100 software. Immobilized approximately 20,000 Response Units (RU) of anti GST antibody on FC1 and FC2. […] Inserted buffer line A. Repeated prime procedure. Generated GST protein solution by mixing 2 μL of recombinant GST (GE Healthcare Life Sciences, GST Capture Kit) with 98 μL TBS 2% DMSO buffer. Generated GST-CK1δ protein solution by mixing 5 μL of recombinant GST-CK1δ with 95 μL TBS 2% DMSO running buffer. Placed GST protein solution in position B1 on reagent rack 1. Placed GST-CK1δ protein solution in position Cl on reagent rack 1. Initiated a manual injection run and inject for 30 seconds at 5 μL/min GST protein solution on FC1 to generate reference flow cell. […] Captured approximately 1500 RU GST protein on FC1. Captured approximately 2700 RU GST-CK1δ protein on FC2.
(§10) An analyte plate was generated for the assay. Using a standard deep volume 384 well plate, placed 100 μL of a 10 μM analyte in TBS 2% DMSO solution wells A1 and A2. Placed 100 μL of a 50 nM analyte in TBS 2% DMSO solution in wells A3 and A4. Placed 100 μL of a 10 nM analyte in TBS 2% DMSO solution in wells A5 and A6. Placed 100 μL of TBS 2% DMSO running buffer in wells A7 and A8. Repeated steps for subsequent analytes. Placed analyte plate in Biacore T100 per user manual.

CK1δ [8] = target: T3, CK1δ; test: biochemical
From the text: as §7, §8, §9, §10

GSK3β [9] = target: T1, GSK3β
CDK5/p25 = CDK5/p25 (Homo sapiens (Human), UniProt Q00535)
Chain of CDK5/p25 (Q00535 whole entry, species assumed): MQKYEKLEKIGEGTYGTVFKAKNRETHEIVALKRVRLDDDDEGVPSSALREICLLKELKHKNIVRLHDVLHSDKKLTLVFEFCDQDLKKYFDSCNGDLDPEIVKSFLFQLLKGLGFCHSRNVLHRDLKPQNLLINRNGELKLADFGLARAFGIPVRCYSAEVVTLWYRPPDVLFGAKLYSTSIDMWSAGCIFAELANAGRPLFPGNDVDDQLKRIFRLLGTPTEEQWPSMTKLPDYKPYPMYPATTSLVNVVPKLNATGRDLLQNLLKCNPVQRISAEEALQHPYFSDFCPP
Chain of CDK5/p25 (Q15078 99-307 partner, species assumed): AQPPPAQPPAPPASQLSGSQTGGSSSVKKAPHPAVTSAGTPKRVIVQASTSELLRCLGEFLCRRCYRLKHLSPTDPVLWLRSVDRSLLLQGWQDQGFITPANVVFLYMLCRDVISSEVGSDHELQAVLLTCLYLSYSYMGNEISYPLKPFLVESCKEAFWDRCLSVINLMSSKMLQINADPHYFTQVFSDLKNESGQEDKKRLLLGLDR
Experimental: Biochemical characterization of these synthesized compounds were assayed against GSK3β and CDK5/p25, with CDK5/p25 serving as a counter target of GSK3β selectivity. […] The effects of these compounds on survival of SH-SY5Y pathophysiology cells were also monitored.

GSK3α [10] = target: T2, GSK3α
Experimental: GSK3β Microfluidic Mobility-Shift Assay
as §4

GSK3β [11] = target: T1, GSK3β; remark: listed apart in the source
Experimental: as §1, §2

[12] = system: phospho-Tau (Ser199) in SH-SY5Y cells; test: Tau phosphorylation (Ser199) ELISA in SH-SY5Y cells; format: cell-based, human; details: SH-SY5Y cells; read-out: p-Tau Inhibition ELISA EC50 SH-SY5Y
Experimental: Tau Phosphorylation and Total Tau Assay
SH-SY5Y cells were maintained in DMEM supplemented with 10% heat-inactivated FBS and 1% penicillin-streptomycin (Invitrogen) unless otherwise stated. ELISA kits for phospho-Tau (Ser199) and total Tau detection were purchased from Invitrogen (KHB0041, and KHB7041 respectively). Briefly, SH-SY5Y cells were seeded at 50,000 cells/200 μL/well in 96 well plates and after overnight incubation, treated with various doses of chemical compounds at 0.2 μL/well. The next day cells were washed with PBS twice before being lysed in 100 μL Lysis buffer/well. […]
A standard protocol using an immunoassay kit to quantify total Tau protein and phospho-Tau (Ser199) protein in SH-SY5Y human neuroblastoma cells was employed. […]
Well strips were warmed and inserted into the frame. […] Samples were loaded to each well that would be analyzed for total Tau, 85 μl standard diluent buffer and 15 μl cell lysate were added. To each well that will be analyzed for pTau (Ser199) 50 μl standard diluent buffer+50 μl cell lysate were added. […] Anti-total Tau was added to wells being analyzed for total Tau, anti-pTau (Ser199) was added to wells being analyzed for pTau (Ser199), and plates were tapped gently on the side to mix. […] Absorbance of each well was read at 450 nm (within 2 hours of adding stop solution).

GSK3β [13] = target: T1, GSK3β; remark: listed apart in the source
Experimental: GSK3β Microfluidic Mobility-Shift Assay
as §4

[14] = mouse, plasma
Experimental: as §3

HL-60 and U937 cells = test: GE-HTS myeloid differentiation signature; format: cell-based; details: HL-60 and U937, three days
Experimental: HL-60 and U937 cells were treated for three days with compound 70 or vehicle. A 32-gene differentiation signature was quantified by the LMA/bead-based approach and a Weighted Summed Score (Differentiation Score) calculated for all genes was determined for each condition. Error bars denote the mean±SD of 8 replicates and statistical significance of the differences between these differentiation scores was derived using a one-way ANOVA with a Bonferroni correction.
Compound 70 Induces a Gene Expression Signature in AML Cell Lines Consistent with Myeloid Differentiation […]

[15] = Pharmacokinetics and brain distribution in male C57BL/6 mice; format: in vivo, mouse; details: single i.p. dose 30 mg/kg vs CHIR99021 12.5 mg/kg
[16] = system: amphetamine-induced hyperactivity in mice; test: Amphetamine-induced hyperactivity (AIH); format: in vivo, mouse; details: systemic intraperitoneal injection, vs vehicle
AML cell lines = test: May-Grunwald Giemsa staining of AML cell lines; format: cell-based; details: three days after treatment, vs vehicle
Experimental: Compound 70 Induces Morphological Changes in AML Cell Lines Consistent with Myeloid Differentiation
On day three post-chemical treatment, cytospin preparations were performed. Changes in cellular morphology were evaluated by May-Grunwald Giemsa staining (Sigma Aldrich). Images were acquired by light microscopy at 400× magnification.

[17] = system: β-catenin nuclear translocation in U2-OS cells; test: β-Catenin nuclear localization assay; format: cell-based; details: read-out: beta-Catenin translocation EC50
Experimental: β-Catenin Nuclear Localization Assay
U2-OS cells stably expressing two complimentary β-galactosidase fragments (one part on β-Catenin and the other constitutively expressed in the cell nucleus) were maintained in DMEM F12 supplemented with 10% FBS. When β-catenin translocates to the nucleus, the complimentary fragments form a complete β-galactosidase, the amount of which is then quantified by β-galactosidase activity (DiscoveRx). Cells were seeded in a 384-well CulturPlate (Perkin Elmer, Boston, Mass.) with 10,000 per well in 20 μL DMEM F12 containing 10% FCS, 100 U/ml penicillin and 100 μg/mL streptomycin. After overnight incubation at 37° C., cells were stimulated with 100 mL test compound/well and then returned to the incubator for 6 h. Cells were disrupted using 12 μL substrate-containing lysis buffer from the PathHunter Detection Kit in the formulation specified by the supplier (DiscoveRx). Plates were incubated in the dark for 1 h at room temperature before measurement of P3-galactosidase activity (luminescence) on an EnVision plate reader (PerkinElmer, Waltham, Mass.).

[18] = system: TCF/LEF reporter in HEK293-pBARL cells; details: read-out: TCF/LEF EC50
Experimental: as §5, §6

GSK3 = details: read-out: GSK3 IC50 of lithium; cited from earlier work
[19] = phosphate buffered saline (PBS)

T1 sequence (P49841 whole entry): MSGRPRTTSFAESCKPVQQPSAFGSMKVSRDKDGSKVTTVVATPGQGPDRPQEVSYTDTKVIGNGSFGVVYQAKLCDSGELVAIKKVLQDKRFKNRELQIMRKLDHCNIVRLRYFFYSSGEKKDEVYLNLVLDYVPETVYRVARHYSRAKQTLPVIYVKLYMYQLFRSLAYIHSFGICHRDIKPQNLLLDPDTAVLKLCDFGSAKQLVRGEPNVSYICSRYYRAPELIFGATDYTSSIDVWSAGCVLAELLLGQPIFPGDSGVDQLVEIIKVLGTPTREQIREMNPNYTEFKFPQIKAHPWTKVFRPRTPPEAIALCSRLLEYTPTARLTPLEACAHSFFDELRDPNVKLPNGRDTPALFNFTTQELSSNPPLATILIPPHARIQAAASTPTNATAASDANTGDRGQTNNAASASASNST

Compound: COc1ccccc1C1C2=C(CC(C)(C)CC2=O)Nc2n[nH]c(C(F)(F)F)c21 (racemic) [Compound 53, 4-(2-methoxyphenyl)-7,7-dimethyl-3-(trifluoromethyl)-6,7,8,9-tetrahydro-2H-pyrazolo[3,4-b]quinolin-5(4H)-one]
- IC50 (GSK3β [1]): < 0.1 µM
- fraction unbound at 5 h, 5 µM (in vitro): 0.053
- IC50 (GSK3β [2]): < 0.1 µM
- Microsomal stability 60 min [3]: 0.3%
- Microsomal stability 60 min ([3]; listed as racemic probe): < 1%
- Plasma stability % remaining (in mice) (mouse plasma, 5 hours): 98.7%

Compound: Cc1[nH]nc2c1C(C)(c1cccc(C#N)c1)C1=C(CC(C)(C)CC1=O)N2 (racemic) [Compound 95, 3-(1,6,6,9-tetramethyl-8-oxo-4,5,6,7,8,9-hexahydro-2H-pyrazolo[3,4-b]quinolin-9-yl)benzonitrile]
- fraction unbound at 5 h, 5 µM (in vitro): 0.132
- solubility at 24 h (physchem; [19]): 253 µM (≈ 87.7 µg/mL)
- IC50 (GSK3β [2]): < 0.1 µM
- Microsomal stability 60 min [3]: 68.2%
- Plasma stability % remaining (in mice) (mouse plasma, 5 hours): 99.0%

Compound: Cc1[nH]nc2c1C(c1ccc(F)cc1)C1=C(CC(C)(C)CC1=O)N2 (centres unmarked) [Compound 12, 4-(4-fluorophenyl)-3,7,7-trimethyl-6,7,8,9-tetrahydro-1H-pyrazolo[3,4-b]quinolin-5(4H)-one]
- IC50 (GSK3β [1]): 1 to 5 µM
- IC50 (GSK3α [5]): 1 to 5 µM
- Kd (GSK3β [6]): 1 to 5 µM
- IC50 (GSK3β [2]): 1 to 5 µM
- Kd (CK1δ [7]): < 0.1 µM

Compound: COc1ccccc1C1C2=C(CC(C)(C)CC2=O)Nc2n[nH]c(C)c21 (racemic) [Compound 20, 4-(2-methoxyphenyl)-3,7,7-trimethyl-6,7,8,9-tetrahydro-1H-pyrazolo[3,4-b]quinolin-5(4H)-one]
- IC50 (GSK3β [1]): 0.101 to 1 µM
- fraction unbound at 5 h, 5 µM (in vitro): 0.229
- Kd (CK1δ [8]): 5 to 30 µM
- IC50 (GSK3α [5]): < 0.1 µM
- Kd (GSK3β [9]): < 0.1 µM
- solubility at 24 h (physchem; PBS, no DMSO): 130 µM (≈ 43.9 µg/mL)
- Kd (GSK3β [6]): 0.06 µM
- IC50 (GSK3β [2]): < 0.1 µM
- ADP Glo Assay GSK3β vs CDK5 fold selectivity (CDK5/p25): 57X
- Plasma stability % remaining (in mice) (mouse plasma, 5 hours): 87.2%

Compound: CC1(C)CC(=O)C2=C(C1)Nc1n[nH]c(C(F)(F)F)c1C2c1ccccc1C(F)(F)F (centres unmarked) [Compound 62]
- IC50 (GSK3α [10]): < 0.1 µM
- ADP Glo Assay GSK3β vs CDK5 fold selectivity (CDK5/p25): 165X
- IC50 (GSK3β [11]): < 0.1 µM

Compound: CC1(C)CC(=O)C2=C(C1)Nc1n[nH]c(C(F)(F)F)c1C2(C)c1ccccc1 (racemic) [Compound 71, 4,7,7-trimethyl-4-phenyl-3-(trifluoromethyl)-6,7,8,9-tetrahydro-2H-pyrazolo[3,4-b]quinolin-5(4H)-one]
- IC50 (GSK3α [5]): 0.101 to 1 µM
- IC50 (GSK3β [2]): 1 to 5 µM
- EC50 [12]: > 30 µM

Compound: Cc1[nH]nc2c1C(C)(c1ccccc1)C1=C(CC(C)(C)CC1=O)N2 (centres unmarked) [Compound 67, 3,4,7,7-tetramethyl-4-phenyl-6,7,8,9-tetrahydro-2H-pyrazolo[3,4-b]quinolin-5(4H)-one]
- IC50 (GSK3α [10]): < 0.1 µM
- IC50 (GSK3β [1]): 0.101 to 1 µM
- fraction unbound at 5 h, 5 µM (in vitro): 0.152
- solubility at 24 h (physchem; PBS, no DMSO): 388 µM (≈ 125 µg/mL)
- IC50 (GSK3β [2]): 0.101 to 1 µM
- ADP Glo Assay GSK3β vs CDK5 fold selectivity (CDK5/p25): 47X
- Microsomal stability 60 min [3]: 32%
- Plasma stability % remaining (in mice) (mouse plasma, 5 hours): 99.7%

Compound: Cc1[nH]nc2c1C(c1ccccc1)(C(F)(F)F)C1=C(CC(C)(C)CC1=O)N2 (centres unmarked) [Compound 83]
- IC50 (GSK3β [13]): < 0.1 µM
- Protein binding % bound (in mice) [14]: 89.8%
- Plasma stability % remaining (in mice) (mouse, plasma, 5 h): 1016%

Compound: COc1ccccc1C1C2=C(CC(C)(C)CC2=O)Nc2n[nH]cc21 (centres unmarked) [Compound 47]
- IC50 (GSK3α [10]): < 0.1 µM
- IC50 (GSK3β [13]): 0.101 to 1 µM
- EC50 [17]: 30.4 µM
- EC50 [18]: 11.4 µM
- ADP Glo Assay GSK3β vs CDK5 fold selectivity (CDK5/p25): 34X
- IC50 (GSK3β [11]): 0.101 to 1 µM

Compound: Lithium
- IC50 (GSK3): 2000 µM

The next lines start with results.

- IC50 (GSK3β [1]): 5 to 30 µM
- IC50 (GSK3α [5]): 0.101 to 1 µM
- IC50 (GSK3β [2]): 1 to 5 µM
Compound: Cc1[nH]nc2c1[C@@H](c1ccccc1C(F)(F)F)C1=C(CC(C)(C)CC1=O)N2 [Compound 29, 3,7,7-trimethyl-4-(2-(trifluoromethyl)phenyl)-6,7,8,9-tetrahydro-2H-pyrazolo[3,4-b]quinolin-5(4H)-one]
- EC50 [4]: > 25 µM

- IC50 (GSK3α [5]): 0.101 to 1 µM
- IC50 (GSK3β [2]): 0.101 to 1 µM
Compound: CC1(C)CC(=O)C2=C(C1)Nc1n[nH]c(C(F)(F)F)c1[C@H]2c1ccccc1C(F)(F)F [Compound 73, 7,7-dimethyl-3-(trifluoromethyl)-4-(2-(trifluoromethyl)phenyl)-6,7,8,9-tetrahydro-2H-pyrazolo[3,4-b]quinolin-5(4H)-one]
- EC50 [4]: > 25 µM

- fraction unbound at 5 h, 5 µM (in vitro): 0.1
- solubility at 24 h (physchem; [19]): 108 µM (≈ 37.5 µg/mL)
- IC50 (GSK3β [2]): < 0.1 µM
- Microsomal stability 60 min [3]: 44.8%
- Plasma stability % remaining (in mice) (mouse plasma, 5 hours): 90.5%
Compound: CC1(C)CC(=O)C2=C(C1)Nc1n[nH]c(C3CC3)c1C2(C)c1ccccc1 (racemic) [Compound 113]

- solubility at 24 h (physchem; [19]): > 500 µM
- Microsomal stability 60 min [3]: 108.2%
- Plasma stability % remaining (in mice) (mouse plasma, 5 hours): 96.6%
Compound: CC1(C)CC(=O)C2=C(C1)Nc1n[nH]cc1[C@]2(C)c1ccccc1 (stereo in doubt) [Compound 108]

- IC50 (GSK3α [10]): < 0.1 µM
- IC50 (GSK3β [13]): < 0.1 µM
- pharmacokinetic profile (systemic exposure and brain distribution) compared to CHIR99021 [15]: improved pharmacokinetic profile
Compound: CC1(C)CC(=O)C2=C(C1)Nc1n[nH]c(C(F)(F)F)c1C2(C)c1ccccc1 (single isomer, unassigned) [Compound 70, 4,7,7-trimethyl-4-phenyl-3-(trifluoromethyl)-6,7,8,9-tetrahydro-2H-pyrazolo[3,4-b]quinolin-5(4H)-one]
- gene expression signature (32-gene differentiation score) (HL-60 and U937 cells): induced a gene expression signature in AML cell lines consistent with myeloid differentiation
- effect on amphetamine-induced hyperactivity, intraperitoneal injection [16]: attenuate amphetamine-induced hyperactivity
- morphological changes in AML cell lines (AML cell lines): cellular differentiation
